Laboratory results reported in US20180185312A1, “METHOD AND COMPOSITION FOR PREVENTING OR TREATING IMMUNE ALLERGIC AIRWAY DISEASE” (Development Center for Biotechnology, priority 2016, published 2018).

How the values were obtained:
[1] = Conversion of effective amount from mouse to human by conversion factor W; settings: converted from the mouse amount with conversion factor W 0.11
Description: For example, when being administered into a mouse, an effective amount of SAC is at least approximately 25 mg/kg; more preferably, an effective amount of SAC is approximately from 25 mg/kg to 100 mg/kg. When being administered into a person, an effective amount of SAC is at least approximately 2.75 mg/kg; more preferably, an effective amount is approximately from 2.75 mg/kg to 11 mg/kg. The conversion of an effective amount from animal to animal can be easily calculated by those skilled in the art based on known knowledge. For example, when an effective amount per kg for animal A is known and an effective amount per kg for animal B is to be calculated, look up table 1 first to find the conversion factor (W), then calculate as follows: An effective amount for animal B (mg/kg)=W×an effective amount for animal A (mg/kg) For example, in one of the examples of this disclosure, an effective amount of SAC being administered into a mouse was 25 mg/kg, which needs to be converted into an effective amount for a human. Animal A is a mouse and animal B is a human, the crossing point which is the conversion factor W is 0.11, therefore an effective amount for a human is 0.11×25 mg/kg=2.75 mg/kg. [table]

IL-6 = experiment: Cytokines in nasal irrigation solution, allergic rhinitis animal model: IL-6; format: in vivo; settings: BALB/c mice, in comparison with the disease group, increasing amount of SAC
Description: (§1) 3. All animals were sacrificed at the end of the 4th week after being given the tested material, their nasal cavities were rinsed 3 times with 1 ml of physiological saline solution, then nasal irrigation solution was collected, centrifuged at 1000 rpm for 5 minutes at 4° C. to collect the supernatant solution, then store at −80° C. for preservation.

IL-9 = experiment: Cytokines in nasal irrigation solution, allergic rhinitis animal model: IL-9; format: in vivo; settings: BALB/c mice, in comparison with the disease group, increasing amount of SAC
Description: as §1

allergic rhinitis = experiment: Allergic rhinitis animal model: frequency of sneezing and nasal rubbing; format: in vivo, Mice (BALB/c)
Source text: Drug Efficacy Evaluation for Allergic Rhinitis in Animals 1. Species: Mice. 2. Strain: BALB/c. 8. Number of animals: The animals were divided into 5 groups, 4 to 5 animals per group, a total of 24 animals. [table] 1. The frequency of sneezing and nasal rubbing of the mice was observed once per week.

[2] = BALB/c mice, SAC 25, 50, 100 mpk p.o. twice per day, in comparison to the disease group

With `C=CCSC[C@H](N)C(=O)O` [SAC, S-allyl-L-Cysteine] the “effective amount for a human” value [1] was 2.75 mg/kg, the “level of IL-6 in nasal irrigation solution” value (IL-6) was “decreased” and the “level of IL-9 in nasal irrigation solution” value (IL-9) was “decreased”. For the same compound, the “frequency of nasal rubbing” value (allergic rhinitis; [2]) was “tended to decline”, the frequency of sneezing (allergic rhinitis; [2]) was “tended to decline” and the “effective amount administered into a mouse” value (allergic rhinitis; mouse, in one of the examples) was 25 mg/kg.
